Here are results for 14 molecules from patent US5952511A, “Indolin-2-one derivatives” (Chugai Seiyaku Kabushiki Kaisha, priority 1993, dated 1999).

Structures are written as SMILES.

The target in assay [1] is T1, gastrin receptors (guinea pig gastric glands) (Cavia porcellus, UniProt H0VZC5).
T1 construct: The gastric glands were isolated from the tissue with a pipette; from tissue; host or cells: isolated gastric glands from gastric mucosa of Hartley male guinea pigs
T1 sequence (H0VZC5 1-426): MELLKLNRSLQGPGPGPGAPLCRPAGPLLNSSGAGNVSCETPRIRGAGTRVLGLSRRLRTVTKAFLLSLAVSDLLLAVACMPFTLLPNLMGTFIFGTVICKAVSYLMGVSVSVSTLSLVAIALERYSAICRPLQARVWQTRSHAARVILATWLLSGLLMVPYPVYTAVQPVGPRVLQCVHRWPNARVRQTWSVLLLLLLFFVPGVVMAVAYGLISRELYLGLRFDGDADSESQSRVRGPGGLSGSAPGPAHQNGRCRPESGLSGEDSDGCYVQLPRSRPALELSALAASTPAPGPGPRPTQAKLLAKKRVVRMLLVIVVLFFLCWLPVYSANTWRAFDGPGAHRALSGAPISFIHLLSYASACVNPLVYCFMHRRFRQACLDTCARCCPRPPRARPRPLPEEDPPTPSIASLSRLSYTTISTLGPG
The experiment in a line: Gastrin Receptor Binding Test in Guinea Pig Gastric Glands (Test Example 1). Further details: species or system guinea pig (Hartley, male). The following applies: inhibition of specific 125I-gastrin I human binding (22.5 pM), 25° C., 45 min. On the procedure:
Gastrin Receptor Binding Test in Guinea Pig Gastric Glands
Preparation of Gastric Glands:
Guinea pig gastric glands were prepared according to the method of Chang, et al., Biochem. Biophys. Res. Commun., 134, 895 (1986). The gastric mucosa of a Hartley male guinea pig was peeled off. After washing, the mucosa was minced with scissors in buffer A (Eagle's MEM containing 2 mM L-glutamine and 25 mM HEPES; pH 7.4). After washing, the minced tissue was incubated in buffer A containing 0.025% collagenase, 0.01% soy bean trypsin inhibitor, and 0.1% BSA at 37° C. for 60 minutes under 95% O2 and 5% CO2. The gastric glands were isolated from the tissue with a pipette, washed twice with buffer A, and filtered through a mesh. Then, the gastric glands were obtained by centrifugation.
Guinea pig gastric glands were resuspended in buffer B (Hank's solution containing 10 mM HEPES and 0.2% BSA; pH 7.4) (10 ml of buffer B per guinea pig).
To 200 μl of the suspension containing the resuspended isolated gastric glands were added 20 μl of ^125 I-gastrin I human (final concentration: 22.5 pM). Then, 10 μl of a test compound or a solvent (for total binding) or 10 μM Pentagastrin (for nonspecific binding), and buffer B was added there to make a total volume of 1 ml. The reaction mixture was incubated at 25° C. for 45 minutes and then centrifuged at 12000 g. The supernatant was removed by suction, and the radioactivity of the isolated gastric glands was measured with a gamma-counter.
The specific binding of gastrin to gastrin receptors was obtained from a difference between the total binding and the nonspecific binding. The IC50 of the test compound in inhibition of specific binding was calculated.

The test system of assay [2] is gastric acid secretion. The assay is described as follows: Inhibitory Activity on Gastric Acid Secretion in Pylorus Ligated Rats (Test Example 2). In kind it is in vivo, rat (Sprague-Dawley, male). The following applies: Rattus norvegicus, intraduodenal, 10 mg/kg, i.d., 4 h. As for the experimental part:
Inhibitory Activity on Gastric Acid Secretion in Pyrolus Ligated Rats
Sprague-Dawley male rats weighing about 200 g were deprived of food for 24 hours while allowed water ad libitum. The abdomen was opened under anesthesia with ethyl ether, the pyrolus ligated, and the abdomen closed. The rats were deprived of food and water for 4 hours until they were surcrified with ethyl ether. The stomach was removed, and gastric juice was collected and measured. The gastric juice was centrifuged at 3000 rpm, and the supernatant was titrated up to pH 7.0 with 0.1N NaOH solution to obtain the acidity of the gastric juice. The amount of the gastric acid output was calculated by multiplying the gastric juice volume by the acidity, and the percent inhibition of acid secretion was obtained according to the following equation. A test compound, suspended in a 3% gum arabic solution, was administered intraduodenally at a dose of 2 ml/kg immediately after the pyrolus ligation.
Inhibition (%)=[(Average amount of gastric acid output in control group--Average amount of gastric acid output in test group)/Average amount of gastric acid secreted […]]×100

Assay [3] has as its target T2, CCK-B receptors (rat cerebral cortex) (Rattus norvegicus, UniProt P30553).
T2 construct: Cerebral cortex was minced in the same buffer, and homogenized with Polytron; from tissue; host or cells: cerebral cortex membrane fraction of Sprague-Dawley male rats
T2 sequence (P30553 1-452): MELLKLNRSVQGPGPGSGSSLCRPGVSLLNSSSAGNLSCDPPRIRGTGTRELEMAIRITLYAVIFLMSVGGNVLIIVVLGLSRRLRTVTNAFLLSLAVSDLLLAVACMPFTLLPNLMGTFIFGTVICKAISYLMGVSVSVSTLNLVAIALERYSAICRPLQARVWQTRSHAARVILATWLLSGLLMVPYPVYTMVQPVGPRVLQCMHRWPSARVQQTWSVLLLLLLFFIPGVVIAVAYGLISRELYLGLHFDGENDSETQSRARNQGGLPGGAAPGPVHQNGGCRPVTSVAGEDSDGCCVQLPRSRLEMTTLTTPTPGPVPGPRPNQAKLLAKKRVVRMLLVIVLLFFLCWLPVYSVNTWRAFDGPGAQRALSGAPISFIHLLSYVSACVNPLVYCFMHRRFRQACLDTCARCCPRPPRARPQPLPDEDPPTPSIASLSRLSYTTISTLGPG
The experiment in a line: CCK-B Receptor Binding Test in Rat Cerebral Cortex (Test Example 3). Set-up: species or system rat (Sprague-Dawley, male). The following applies: inhibition of specific 125I-CCK-8 sulfated binding (15 pM), 25° C., 120 min. On the procedure: CCK-B Receptor Binding Test in Rat Cerebral Cortex
A rat cortical membrane fraction was prepared in accordance with the method of Chang, et al., Proc. Natl. Acad. Sci., U.S.A., 83, 4923 (1986). Sprague-Dawley male rats were sucrified and the brains were removed and immersed in a 50 mM Tris-HCl buffer (pH 7.4) under ice-cooling, and the cortex was dissected. Cerebral cortex was minced in the same buffer, and homogenized with Polytron. The homogenate was centrifuged at 2,500 g, and the supernatant was further centrifuged at 50,000 g. The pellet was resuspended in a reaction buffer solution (10 mM HEPES, 5 mM MgCl2, 1 mM EGTA, 130 mM NaCl; pH 6.5).
To 150 μl of the resulting rat cerebral cortex suspension were added 20 μl of ^125 I-CCK-8 sulfated (final concentration: 15 pM) and 10 μl of a test compound or a solvent (for total binding) or 1 μM CCK-8 sulfated (for nonspecific binding), and the reaction buffer solution was added there to make 1 ml. The reaction mixture was incubated at 25° C. for 120 minutes, followed by filtration through a GF/B filter (produced by Whatman). The radio-activity of the membrane fraction adsorbed onto the filter was measured with a gamma-counter.
The specific binding to CCK-B receptors was obtained from a difference between the total binding and the nonspecific binding. The IC50 of the test compound in inhibition of specific binding was calculated.

For orientation: IC50 means the midpoint of a concentration-inhibition curve. High values mean weaker potency in that assay, low ones greater potency in that assay. By inhibition in vivo is commonly meant the share of the control response that was lost under treatment. High values mean a strong effect, low ones a weak effect.

On to `CCOC(CN1C(=O)C(CC(=O)Nc2ccc(C)cn2)(NC(=O)Nc2ccc(C)cc2)c2ccccc21)OCC` (racemic) [Example 138, (RS)-1-(2,2-Diethoxyethyl)-3-(N'-(4-methylphenyl)ureido)-3-((5-methylpyrido-2-yl)aminocarbonylmethyl)indolin-2-one], for which the IC50 was found to be 2200 pM in assay [1] and 500 pM in assay [3]. The inhibition in vivo at 10 mg/kg in assay [2] came to 69%.

Regarding `CCOC(CN1C(=O)C(CC(=O)Nc2cccc(OC)c2)(NC(=O)Nc2ccc(C)cc2)c2ccccc21)OCC` (racemic) [Example 129, (RS)-1-(2,2-Diethoxyethyl)-3-((3-methoxyphenyl)aminocarbonylmethyl)-3-(N'-(4-methylphenyl)ureido)indolin-2-one], the IC50 in assay [1] was 3600 pM; in assay [3], 390 pM. In assay [2], this molecule displayed an inhibition in vivo at 10 mg/kg of 71%.

For `CCOC(CN1C(=O)C(CC(=O)Nc2ccc(C)cc2)(NC(=O)Nc2ccc(C)cc2)c2ccccc21)OCC` (single isomer, unassigned; (+)) [Example 174, (+)-1-(2,2-Diethoxyethyl)-3-(4-methylphenyl)aminocarbonylmethyl-3-(N'-(4-methylphenyl)ureido)indolin-2-one], the IC50 was 540 pM in assay [1] and 420 pM in assay [3]. Besides, in assay [2], the inhibition in vivo at 10 mg/kg was 70%.

Regarding `CCOC(CN1C(=O)C(NC(=O)Nc2ccc(C)cc2)(NC(=O)Nc2ccc(C)cc2)c2ccccc21)OC` (racemic) [Example 7, (RS)-1-(2-Ethoxy-2-methoxyethyl)-3,3-bis(N'-(4-methylphenyl)ureido)indolin-2-one], the IC50 in assay [3] turned out to be 70 pM.

Consider `CCOC(CN1C(=O)C(CC(=O)Nc2ccc(OC)nc2)(NC(=O)Nc2ccc(C)cc2)c2ccccc21)OCC` (single isomer, unassigned; (+)) [Example 181, (+)-1-(2,2-Diethoxyethyl)-3-((2-methoxypyrido-5-yl)aminocarbonylmethyl)-3-(N'-(4-methylphenyl)ureido)indolin-2-one], for which the IC50 amounted to 2200 pM in assay [1] and 780 pM in assay [3]. In assay [2], this molecule displayed an inhibition in vivo at 10 mg/kg of 69%.

Consider `CCOC(CN1C(=O)C(CC(=O)Nc2ccc(C)c(C)c2)(NC(=O)Nc2ccc(C)cc2)c2ccccc21)OCC` (racemic) [Example 122, (RS)-1-(2,2-Diethoxyethyl)-3-((3,4-dimethylphenyl)aminocarbonylmethyl)-3-(N'-(4-methylphenyl)ureido)indolin-2-one], for which the IC50 was 2900 pM in assay [1] and 180 pM in assay [3]. The molecule further returned an inhibition in vivo at 10 mg/kg in assay [2] of 62%.

Regarding `CCOC(CN1C(=O)C(CC(=O)Nc2ccc(C)cn2)(NC(=O)Nc2cccc(OC)c2)c2ccccc21)OCC` (single isomer, unassigned; (+)) [Example 190, (+)-1-(2,2-Diethoxyethyl)-3-(N'-(3-methoxyphenyl)ureido)-3-((5-methylpyrido-2-yl)aminocarbonylmethyl)indolin-2-one], the IC50 in assay [1] is 680 pM; in assay [3], 100 pM. The inhibition in vivo at 10 mg/kg in assay [2] came out at 70%.

Take `CCOC(CN1C(=O)C(CC(=O)Nc2ccc(OC)nc2)(NC(=O)Nc2ccc(C)cc2)c2ccccc21)OCC` (racemic) [Example 143, (RS)-1-(2,2-Diethoxtyethyl)-3-((2-methoxypyrido-5-yl)aminocarbonylmethyl)-3-(N'-(4-methylphenyl)ureido)indolin-2-one]: the values for the IC50 in assay [1] and in assay [3] were 1500 pM and 1900 pM, respectively. Besides, in assay [2], the inhibition in vivo at 10 mg/kg is 64%.

For the molecule `Cc1ccc(NC(=O)CC2(NC(=O)Nc3ccc(C)cc3)C(=O)N(Cc3ccccc3)c3ccccc32)cc1` (racemic) [Example 62, (RS)-1-Benzyl-3-((4-methylphenyl)aminocarbonylmethyl)-3-(N'-(4-methylphenyl)ureido)indolin-2-one], the IC50 in assay [3] came to 1200 pM.

As to `Cc1ccc(NC(=O)CC2(NC(=O)Nc3ccc(C)cc3)C(=O)N(Cc3ccccn3)c3ccccc32)cc1` (racemic) [Example 65, (RS)-3-((4-Methylhenyl)aminocarbonylmethyl)-3-(N'-(4-methylphenyl)ureido)-1-(2-pyridylmethyl)indolin-2-one], the IC50 in assay [3] worked out at 760 pM. This IC50 lies about 1.6-fold lower than the previous one.

The molecule `CCOC(CN1C(=O)C(CC(=O)Nc2cccc(C)c2)(NC(=O)Nc2cccc(OC)c2)c2ccccc21)OCC` (racemic) [Example 152, (RS)-1-(2,2-Diethoxyethyl)-3-(N'-(3-methoxyphenyl)ureido)-3-((3-methylphenyl)aminocarbonylmethyl)indolin-2-one] had an IC50 in assay [1] of 2100 pM. Further, in assay [2], the inhibition in vivo at 10 mg/kg was determined as 64%.

On to `Cc1ccc(NC(=O)CC2(NC(=O)Nc3ccc(C)cc3)C(=O)N(CCc3ccccc3)c3ccccc32)cc1` (racemic) [Example 66, (RS)-3-((4-Methylphenyl)aminocarbonylmethyl)-3-(N'-(4-methylphenyl)ureido)-1-(2-phenylethyl)indolin-2-one], for which the IC50 in assay [3] was 760 pM. In other words, the sub-nanomolar range.

In assay [1], `CCOC(CN1C(=O)C(CC(=O)Nc2ccc(C)cc2)(NC(=O)Nc2cccc(Cl)c2)c2ccccc21)OCC` (racemic) [Example 89, (RS)-3-(N'-(3-Chlorophenyl)ureido)-1-(2,2-diethoxyethyl)-3-((4-methylphenyl)aminocarbonylmethyl)indolin-2-one] came in with an IC50 of 5800 pM. The inhibition in vivo at 10 mg/kg in assay [2] amounted to 65%.

`CCOC(CN1C(=O)C(CC(=O)Nc2ccc(F)cc2)(NC(=O)Nc2cccc(OC)c2)c2ccccc21)OCC` (racemic) [Example 154, (RS)-1-(2,2-Diethoxyethyl)-3-((4-fluorophenyl)aminocarbonylmethyl)-3-(N'-(3-methoxyphenyl)ureido)indolin-2-one] yielded an IC50 in assay [1] of 1000 pM. The molecule also came in with an inhibition in vivo at 10 mg/kg in assay [2] of 59%.
